Test results published in PMC9674830, “A glutamine-based single α-helix scaffold to target globular proteins” (Nature Communications, 2022).

Experiments:
Type in all cases: physicochemical
[1] = CD spectroscopy (helicity); conditions: 30 μM peptide, ratio taken as sign of monomeric helix
Method: Peptide samples for CD spectroscopy were diluted to a final concentration of 30 μM in a volume of 400 μL in either 20 mM phosphoric acid (pH 2.8) or sodium phosphate (pH 7.4) buffer. Spectra were obtained at 278 K (unless stated otherwise) in a Jasco 815 UV spectro-photopolarimeter with a 1 mm optical path cuvette using a data interval of 0.2 nm in the 190−260 nm range with a scanning speed of 50 nm min^−1 and 20 accumulations. A blank spectrum acquired on the pertaining buffer under the same experimental conditions was subtracted from the sample spectrum. Thermal denaturation experiments were performed by acquiring a single accumulation spectrum with the same parameters at 10 K intervals, with a temperature ramp speed of 10 K min^−1 and an equilibration time of 1 min.

[2] = NMR residue-specific helical propensity (pHel, CheSPI from backbone chemical shifts); conditions: 278 K, pH 7.4, 100 μM; 9 contiguous residues for (P3-7)2, 16 for (P3-7)3
Method: Peptide samples for NMR spectroscopy were diluted to a final concentration of 100 μM in a volume of 400 μL in either 20 mM phosphoric acid (pH 2.8) or sodium phosphate (pH 7.4) buffer with added 10% v/v D2O and 10 μM DSS for internal chemical shift referencing, then filled into Shigemi tubes (Shigemi Co. Ltd, Tokyo, Japan). All NMR experiments were recorded at 278 K (unless stated otherwise) on either a Bruker Avance III 600 MHz or a Bruker Avance NEO 800 MHz spectrometer, both equipped with TCI cryoprobes, using TopSpin 4.0.8 for data acquisition (Bruker, Billerica, MA). Unlabeled synthetic peptides P1-5, P2-6, P3-7, P5-9 were characterized by two-dimensional homonuclear (TOCSY and NOESY) and heteronuclear (^1H-^13C HSQC) experiments. The TOCSY and NOESY mixing times were set to 70 and 200 ms, respectively. Water suppression was achieved by excitation sculpting[59] using a 2 ms long Squa100.1000 selective pulse. For peptide backbone resonance assignment, using uniformly ^15N,^13C labeled peptides, the following series of 3D triple resonance BEST-TROSY[60] experiments were acquired with 25% non-uniform sampling (NUS): HNCO, HN(CA)CO, HN(CO)CA, HNCA, and HN(CO)CACB. For some peptides, we resolved assignment ambiguities by also acquiring a 3D (H)N(CA)NH spectrum. Furthermore, 2D ^13C-detected CACO and CON experiments[61] were measured. […]

[3] = Oligomeric state by SEC-MALS and native MS; conditions: SEC-MALS (and native MS where stated)
Description: To analyze the origin of this behavior and exploit it for peptide design we studied four peptides of identical amino acid composition but with two potential Glni+4 → Leui interactions (pink arrows in Fig. 1a) at different relative positions. The first such interaction is common to all peptides and the second one is shifted 1 (peptide P1-5), 2 (P2-6), 3 (P3-7), or 5 (P5-9) positions towards the C-terminus. After confirming that they were monomeric under our experimental conditions by size exclusion chromatography coupled to multiple angle light scattering (SEC-MALS) (Supplementary Fig. 1d), we used solution-state nuclear magnetic resonance (NMR) spectroscopy to probe their structural properties by exploiting the quantitative dependence of ^13Cα and ^1Hα NMR chemical shifts on residue-specific helical propensity, where larger ^13Cα and lower ^1Hα shifts indicate higher helicity.
We then used CD spectroscopy to study the secondary structure of peptides containing two and three pairs of concatenated Glni+4 → Leui interactions, (P3-7)2 and (P3-7)3, and obtained that they are highly helical and monomeric (Θ222 nm/Θ208 nm < 1) (Fig. 1c, d). […]
These samples were treated with 400 μL of methanol to precipitate the serum proteins and centrifuged for 30 min at 277 K. The supernatant was filtered and analyzed by HPLC to calculate the percentage of intact peptide in the sample. […]

- Θ222 nm/Θ208 nm [1]: < 1
- Residue-specific helical propensity (pHel) over contiguous residues [2]: > 0.9
- Oligomeric state [3]: monomeric
Sequence: KKPGASLAALQALQALQAAQAAKKY [(P3-7)2, Gln-based single α-helix scaffold peptide]
